Source: ChEMBL document CHEMBL3414522, “Design, synthesis, and biological evaluation of novel matrix metalloproteinase inhibitors as potent antihemorrhagic agents: from hit identification to an optimized lead” (J Med Chem, 2015)

Legend:
in vitro [1] = conditions: human, liver microsomes
in vitro [2] = conditions: rat, liver microsomes
in vitro [3] = conditions: mouse, liver microsomes
[4] = Apparent permeability from apical to basolateral side in human Caco2 cells at 2 uM after 120 mins by LC-MS/MS analysis; assay type: ADME, cell-based; conditions: caco-2, 2 h

remaining at 20 min, 1 µM (in vitro [1]) [%] | remaining at 20 min, 1 µM (in vitro [2]) [%] | remaining at 20 min, 1 µM (in vitro [3]) [%] | Papp [4] [nm/s] | Structure (SMILES)
92.1 | 95.6 | 87.2 |  | O=C(NO)C1(S(=O)(=O)c2ccc(Oc3ccc(OC(F)(F)F)cc3)cc2)CCC2(CCNCC2)C1 (centres undefined)
91.1 | 99.8 | 97.5 |  | CNC(=O)c1ccc(Oc2ccc(S(=O)(=O)C3(C(=O)NO)CCC4(CCNCC4)C3)cc2)cc1 (centres undefined)
97 | 97.4 | 89.6 | 0.0059 | CNC(=O)c1ccc(Oc2ccc(S(=O)(=O)[C@@]3(C(=O)NO)CCC4(CCNCC4)C3)cc2)cc1
93.5 | 98.1 | 98 | 0.0016 | CNC(=O)c1ccc(Oc2ccc(S(=O)(=O)[C@]3(C(=O)NO)CCC4(CCNCC4)C3)cc2)cc1
